Assay results reported in US20110039762A1, “TARGETED ANTIMICROBIAL MOIETIES” (C3 JIAN, INC., priority 2009, published 2011).
“Also recorded” adds a separate entry of the source.

What was measured:
[1] = system: E. coli; assay: Kill or inhibit growth/proliferation; morphology, biofilm and growth disruption (Tables 5, 6); assay type: cell-based, Escherichia coli; set-up: key: A: Peptide aggregates; B: Less hyphal formation; Clumps; Diffuse clumps and small polyps; F: Diffuse growth; H: Thin; I: Growth inhibition; Microcolony formation; Rippled; Small polyps; Thick; W: Halo formation on top, microlonies on bottom; also: test concentration or dose not given here
[2] = system: microorganisms; assay: Peptides having multiple activities (targeting/binding, antimicrobial, growth or phenotype altering)
Excerpt: In certain embodiments, peptides described herein can have multiple activities. Thus for example, a peptide can have both binding/targeting activity and antimicrobial activity. Such peptides can be used, e.g., in a chimeric construct, for any or all of these properties. Thus, for example, a peptide designated “B” in Table 8 can be used as a targeting peptide. If it is also designated G or M it can also be used for antimicrobial activity.

[3] = system: microorganisms (e.g., bacteria, yeasts, fungi); assay: Targeting peptide binding to target microorganisms (Table 3); conditions: preferably 1x PBS; for Target(s): microorganism(s) the targeting peptide binds; for Target(s) (microorganisms bound by the targeting peptide): peptide binding in aqueous buffers varied by peptide solubility
[4] = system: MRSA; assay: Kill or inhibit growth/proliferation; morphology, biofilm and growth disruption (Tables 5, 6); assay type: cell-based, Methicillin-resistant Staphylococcus aureus; set-up: key: A: Peptide aggregates; B: Less hyphal formation; Clumps; Diffuse clumps and small polyps; F: Diffuse growth; H: Thin; I: Growth inhibition; Microcolony formation; Rippled; Small polyps; Thick; W: Halo formation on top, microlonies on bottom; also: test concentration or dose not given here
[5] = system: S. epidermidis; assay: as above; assay type: cell-based, Staphylococcus epidermidis; set-up: key: A: Peptide aggregates; B: Less hyphal formation; Clumps; Diffuse clumps and small polyps; F: Diffuse growth; H: Thin; I: Growth inhibition; Microcolony formation; Rippled; Small polyps; Thick; W: Halo formation on top, microlonies on bottom; also: test concentration or dose not given here
[6] = system: S. pneumoniae; assay: as above; assay type: cell-based, Streptococcus pneumoniae; set-up: key: A: Peptide aggregates; B: Less hyphal formation; Clumps; Diffuse clumps and small polyps; F: Diffuse growth; H: Thin; I: Growth inhibition; Microcolony formation; Rippled; Small polyps; Thick; W: Halo formation on top, microlonies on bottom; also: test concentration or dose not given here
[7] = system: E. faecalis; assay: as above; assay type: cell-based, Enterococcus faecalis; set-up: key: A: Peptide aggregates; B: Less hyphal formation; Clumps; Diffuse clumps and small polyps; F: Diffuse growth; H: Thin; I: Growth inhibition; Microcolony formation; Rippled; Small polyps; Thick; W: Halo formation on top, microlonies on bottom; also: test concentration or dose not given here
[8] = binding in aqueous buffers depending on peptide solubility
[9] = peptide binding conducted in aqueous buffers varied by peptide solubility

## PF-385: peptide having multiple activities (chain 1 MIKKSILKIKYYVPVLISLTLILSA; chain 2 MIKKSILKIKYYVPVLISLTLILSA; Peptide with targeting and/or antimicrobial activity)
[1]
  Organism, effect: E. coli (A)
[2]
  Activities: G B
[3]; [8]
  Target(s): S. epidermidis
[3]; [9]
  Target(s): E. coli; also recorded: P. aeruginosa; also recorded: C. albicans; also recorded: E. faecalis

## PF-664: peptide having multiple activities (chain 1 DQLCVEYPARVSTG; chain 2 DQLCVEYPARVSTG; Peptide with targeting and/or antimicrobial activity)
[4]
  Organism, effect (morphology, biofilm and growth disruption): MRSA (R)
[5]
  Organism, effect (morphology, biofilm and growth disruption): S. epidermidis (M)
[6]
  Organism, effect (morphology, biofilm and growth disruption): S. pneumoniae (M)
[2]
  Activities: G B
[7]
  Organism, effect (morphology, biofilm and growth disruption): E. faecalis (R)
[3]
  Target(s) (microorganisms bound by the targeting peptide): M. smegmatis

## PF-541 (RRNLNSPNIKTRKRALKIIKQHQRSK; Peptide with targeting and/or antimicrobial activity)
[1]
  Organism, effect: E. coli (H)
[6]
  Organism, effect: S. pneumoniae (H)

## PF-638: peptide having multiple activities (chain 1 TFILPK; chain 2 TFILPK; Peptide with targeting and/or antimicrobial activity)
[4]
  Organism, effect: MRSA (M)
[5]
  Organism, effect: S. epidermidis (R)
[6]
  Organism, effect: S. pneumoniae (I)
[2]
  Activities: G B
[7]
  Organism, effect: E. faecalis (H)
[3]
  Target(s) (microorganisms bound by the targeting peptide): S. epidermidis and C. albicans and MRSA and C. jeikeium

## PF-407: peptide having multiple activities (KPKNKKEKTVISYEKLLSMY; Peptide with targeting and/or antimicrobial activity)
[4]
  Organism, effect: MRSA (C)
[5]
  Organism, effect: S. epidermidis (M)
[6]
  Organism, effect: S. pneumoniae (R)
[2]
  Activities: G B
[7]
  Organism, effect: E. faecalis (R)

## PF-429: peptide having multiple activities (AATLICVGSGIMSSL; Peptide with targeting and/or antimicrobial activity)
[4]
  Organism, effect: MRSA (C)
[5]
  Organism, effect: S. epidermidis (C)
[6]
  Organism, effect: S. pneumoniae (M)
[2]
  Activities: G B
[7]
  Organism, effect: E. faecalis (C)
[3]; [9]
  Target(s): S. epidermidis; also recorded: S. pneumoniae; also recorded: C. jeikeium

## PF-544: peptide having multiple activities (chain 1 FGEKQMRSWWKVHWFHP; chain 2 FGEKQMRSWWKVHWFHP; Peptide with targeting and/or antimicrobial activity)
[4]
  Organism, effect: MRSA (D)
[5]
  Organism, effect: S. epidermidis (D)
[6]
  Organism, effect: S. pneumoniae (M)
[2]
  Activities: G B
[7]
  Organism, effect: E. faecalis (R)

## PF-447: peptide having multiple activities (chain 1 IDKSRNKDQFSHIFGLYNICSG; chain 2 IDKSRNKDQFSHIFGLYNICSG; Peptide with targeting and/or antimicrobial activity)
[4]
  Organism, effect: MRSA (C)
[5]
  Organism, effect: S. epidermidis (C)
[6]
  Organism, effect: S. pneumoniae (C)
[2]
  Activities: G B
[7]
  Organism, effect: E. faecalis (C)
[3]; [9]
  Target(s): S. epidermidis; also recorded: M. luteus; also recorded: E. coli; also recorded: S. pneumoniae

## PF-667 (chain 1 PAHQRLRIDQRLVADRDMVQDYES; chain 2 PAHQRLRIDQRLVADRDMVQDYES; Peptide with targeting and/or antimicrobial activity)
[4]
  Organism, effect (morphology, biofilm and growth disruption): MRSA (R)
[5]
  Organism, effect (morphology, biofilm and growth disruption): S. epidermidis (R)
[6]
  Organism, effect (morphology, biofilm and growth disruption): S. pneumoniae (R)
[7]
  Organism, effect (morphology, biofilm and growth disruption): E. faecalis (R)
[3]
  Target(s) (microorganisms bound by the targeting peptide): Mycobacteria spp

## PF-443: peptide having multiple activities (chain 1 KLLYFFNYFENLQQVHLLVQL; chain 2 KLLYFFNYFENLQQVHLLVQL; Peptide with targeting and/or antimicrobial activity)
[4]
  Organism, effect: MRSA (C)
[1]
  Organism, effect: E. coli (R)
[6]
  Organism, effect: S. pneumoniae (C)
[2]
  Activities: G B

## PF-344: peptide having multiple activities (DERLPEAKAIRNFNGSVMVLGR; Peptide with targeting and/or antimicrobial activity)
[1]
  Organism, effect: E. coli (A)
[2]
  Activities: G B
[3]; [8]
  Target(s): B. subtilis; also recorded: C. jejuni

## PF-383: peptide having multiple activities (chain 1 WSEIEINTKQSN; chain 2 WSEIEINTKQSN; Peptide with targeting and/or antimicrobial activity)
[1]
  Organism, effect: E. coli (R)
[5]
  Organism, effect: S. epidermidis (C)
[2]
  Activities: G B
[3]; [8]
  Target(s): S. epidermidis; also recorded: B. subtilis; also recorded: B. fragilis; also recorded: E. coli; also recorded: C. jejuni

## PF-613: peptide having multiple activities (ADEFAKL; Peptide with targeting and/or antimicrobial activity)
[4]
  Organism, effect: MRSA (C)
[5]
  Organism, effect: S. epidermidis (R)
[2]
  Activities: G B
[7]
  Organism, effect: E. faecalis (A)
[3]
  Target(s) (microorganisms bound by the targeting peptide): C. jeikeium

## PF-362: peptide having multiple activities (chain 1 NIERILKEKVWMIRCVE; chain 2 NIERILKEKVWMIRCVE; Peptide with targeting and/or antimicrobial activity)
[4]
  Organism, effect: MRSA (C)
[1]
  Organism, effect: E. coli (C)
[2]
  Activities: G B
[3]; [8]
  Target(s): S. epidermidis; also recorded: E. coli; also recorded: P. aeruginosa; also recorded: C. albicans; also recorded: E. faecalis; also recorded: C. jejuni

## PF-616: peptide having multiple activities (IVFVVTKEKK; Peptide with targeting and/or antimicrobial activity)
[5]
  Organism, effect: S. epidermidis (R)
[2]
  Activities: G B
[7]
  Organism, effect: E. faecalis (A)
[3]
  Target(s) (microorganisms bound by the targeting peptide): C. jeikeium

## PF-677 (chain 1 TCRGAGMH; chain 2 TCRGAGMH; Peptide with targeting and/or antimicrobial activity)
[4]
  Organism, effect (morphology, biofilm and growth disruption): MRSA (D)
[5]
  Organism, effect (morphology, biofilm and growth disruption): S. epidermidis (R)
[6]
  Organism, effect (morphology, biofilm and growth disruption): S. pneumoniae (D)
[7]
  Organism, effect (morphology, biofilm and growth disruption): E. faecalis (R)
[3]
  Target(s) (microorganisms bound by the targeting peptide): Mycobacteria spp

## PF-690 (chain 1 MIPLAGDPVSSHRTVEFGVLGTYLVSGGSL; chain 2 MIPLAGDPVSSHRTVEFGVLGTYLVSGGSL; Peptide with targeting and/or antimicrobial activity)
[4]
  Organism, effect (morphology, biofilm and growth disruption): MRSA (R)
[5]
  Organism, effect (morphology, biofilm and growth disruption): S. epidermidis (R)
[6]
  Organism, effect (morphology, biofilm and growth disruption): S. pneumoniae (M)
[7]
  Organism, effect (morphology, biofilm and growth disruption): E. faecalis (R)
[3]
  Target(s) (microorganisms bound by the targeting peptide): Mycobacteria spp
